Source: patent US20170119806A1, “[…] LACTONE DERIVATIVES AND METHODS OF MAKING AND USING THEREOF” (OHIO STATE INNOVATION FOUNDATION, priority 2014, published 2017)
Entries after “also recorded” stand apart in the source; their conditions may differ. Read-outs that look alike come from different tables or passages of the source.

Columns and labels:
[1] = tested on: human colon cancer HT-29 cells implanted in NCr nu/nu mice; conditions: ip once daily for four days; for activity in in vivo hollow fiber assay (HT-29 cell growth): 5.0-20.0 mg/kg; for toxicity in mice of the hollow fiber assay: up to 20.0 mg/kg
Description: Mice were treated with the indicated doses of 1 once a day by intraperitoneal injection from day 3 to day 6 after implantation of the HT-29 cells facilitated in hollow fibers.
In Vivo Hollow Fiber Assay. […] The human colon cancer cell line HT-29 was used to evaluate 1 using procedures previously described (Mi Q et al. J. Nat. Prod 2009, 72,573-580; Pearce C J et al. Methods Mol. Biol, 2012, 944, 267-277). Eight- to nine-week-old immunodeficient NCr nu/nu mice were purchased from The Jackson Laboratory (Bar Harbor, Me., USA) and housed in microisolation cages at room temperature and a relative humidity of 50-60% under 12:12 h light-dark cycle. […] The mixture was diluted with distilled water to 13% DMSO and 25% CREMOPHOR™. The mice were injected ip once daily for four days with 1 or the positive control (paclitaxel). Each mouse was weighed daily during the study. […] The fibers were retrieved and viable cell mass was evaluated by a modified MTT (3-(4,5-dimethylthiazol-2-yl)-2,5-diphenyltetrazolium bromide) assay. The percentage of the net growth for the cells in each treatment group was calculated by subtracting the day 0 absorbance from the day 7 absorbance and dividing this difference by the net growth in the vehicle control (minus value between the day 7 and the day). Data were compared by the Student's t test, and a p value less than 0.05 was considered statistically significant.
Immunodeficient NCr nu/nu mice implanted with human colon cancer HT-29 cells placed in hollow fibers were treated once daily by 1 at doses of 5.0, 10.0, 15.0, or 20.0 mg/kg, or the vehicle control, or paclitaxel (5 mg/kg), by intraperitoneal (ip) injection tier four days. The relative FIT-29 cell growth values from all mice were calculated.

[2] = tested on: HT-29 human colon cancer cells; test: Cytotoxicity against HT-29 cells
Description: (§1) The cytotoxicity of the test compounds was screened against HT-29 cells by a previously reported procedure (Ren Y et al. J. Nat. Prod 2011, 74, 1117-1125). Paclitaxel and etoposide were used as positive controls.
(§2) All arylnaphthalene lignans isolated from P. poilanet in the present study and their semi-synthetic analogues were evaluated for their cytotoxicity against HT-29 human colon cancer cells, using paclitaxel as the positive control (Table 6) (Ren Y et al. J. Nat. Prod 2011, 74, 1117-1125).

[3] = tested on: CCD-112CoN normal human colon cells; test: Cytotoxicity against CCD-112CoN cells; conditions: for IC50: read-out: IC50 values toward the CCD-112 CoN cells
Text: Following a previous procedure (Still P C et al. J. Nat. Prod. 2013, 76, 243-249) and the method for screening cytotoxicity towards HT-29 cells mentioned above, the cytotoxicity of the samples was screened against CCD-112CoN normal human colon cells.

topo IIα = topo IIα (Homo sapiens, UniProt P11388); test: Topoisomerase II assay (DNA cleavage/relaxation); assay type: biochemical; conditions: 100 μM test compound
Text: The formation of linear DNA was detected by separating the SDS-treated reaction products using ethidium bromide gel electrophoresis and quantified by accounting for the relationship between fluorescence and relative band intensity for open circular (OC), linear (LNR), supercoiled (SC), and relaxed (RLX) configurations of DNA.
Topoisomerase II Assay. […] The formation of linear DNA was detected by separating the SDS-treated reaction products using ethidium bromide gel electrophoresis by a modification of a previously described procedure (Hasinoff B B et al. Mol. Pharmacol. 2005, 67, 937-947). In this system, topo II-mediated catalytic conversion of supercoiled pBR322 DNA to the “relaxed” form of plasmic' DNA can also be observed. A 20 μL cleavage assay reaction mixture contained 250 ng topo IIα protein, 160 ng pBR322 plasmid DNA (NEB, Ipswich, Mass.), 1.0 mM ATP in assay buffer (10 mM Tris-HCl (pH 7.5), 50 mM KCl, 50 mM NaCl, 0.1 mM EDTA, 5 mM MgCl2, 2.5% glycerol), and 100 μM of test compounds or DMSO solvent, as indicated. Assay buffer (17 μL) and test compound/DMSO (1 μL) were mixed and allowed to sit at room temperature for 30 min after which 2 μL of topo IIα was added to initiate the reaction. Tubes were incubated at 37° C. for 15 min, and then quenched with 1% (v/v) SDS/10 mM disodium EDTA/200 mM NaCl. The mixture was treated subsequently with 0.77 mg/mL proteinase K (Sigma) at 55° C. for 60 min to digest the protein, and DNA bands were separated by electrophoresis (18 h at 2 V/cm) on an agarose gel (1.3% w/v) containing 0.7 μg/mL ethidium bromide in TAE buffer pH 8.0 (40 mM Tris base, 0.114% (v/v) glacial acetic acid, 2 mM EDTA). The DNA in the gel was imaged by its fluorescence on a Chemi-Doc XRS+ imager (Bio-Rad, Hercules, Calif.). Linear DNA was quantified by accounting for the relationship between fluorescence and relative band intensity for open circular (QC), linear (LNR), supercoiled (SC), and RLX (relaxed) configurations of DNA (Projan S J et al. Plasmid 1983, 9, 182-190), then calculating % of LNR from the total DNA content in each lane.

HT-29 cells = test: Annexin V staining apoptosis assay; conditions: for HT-29 cell apoptosis at the late-stage / HT-29 cells undergoing early apoptosis: 72 h
Description: Lower left quadrant: the percentage of viable cells; lower right quadrant: the percentage of apoptotic cells; upper left quadrant: the percentage of necrotic cells; upper right quadrant: the percentage of the late-stage apoptotic or dead cells.
Annexin V Staining Method. […] The cells were washed with Annexin V binding buffer, centrifuged at 300×g for 10 min, and suspended (1×10^6) in 100 μL, of 1× Annexin V binding buffer. Then, 10 μL of Annexin fluorochrome was added to the suspension. After the suspension was mixed and incubated in a dark room at room temperature for 15 min, the cells were centrifuged, and the cell pellet was resuspended (1×10^6) in 100 μL of 1× Annexin V binding buffer. Next, 10 μL of Anti-Biotin-APC were added, and the cells incubated at 4-8° C. in a dark room for 10 min were centrifuged, The cell pellet was resuspended (1×10^6) in 500 μL of 1× Annexin V Binding Buffer. After 5 μg/mL of 7-AAD solution was added in the suspension, flow cytometry was conducted immediately.

[4] = tested on: HT-29 human colon cancer cells
Description: as §1, §2

[5] = read-out: IC50 values toward the HT-29 cells, Table 6, triplicate, two independent experiments
[6] = Homo sapiens, HT-29, read-out: IC50 values toward the HT-29 cells

Chain of topo IIα (P11388 whole entry): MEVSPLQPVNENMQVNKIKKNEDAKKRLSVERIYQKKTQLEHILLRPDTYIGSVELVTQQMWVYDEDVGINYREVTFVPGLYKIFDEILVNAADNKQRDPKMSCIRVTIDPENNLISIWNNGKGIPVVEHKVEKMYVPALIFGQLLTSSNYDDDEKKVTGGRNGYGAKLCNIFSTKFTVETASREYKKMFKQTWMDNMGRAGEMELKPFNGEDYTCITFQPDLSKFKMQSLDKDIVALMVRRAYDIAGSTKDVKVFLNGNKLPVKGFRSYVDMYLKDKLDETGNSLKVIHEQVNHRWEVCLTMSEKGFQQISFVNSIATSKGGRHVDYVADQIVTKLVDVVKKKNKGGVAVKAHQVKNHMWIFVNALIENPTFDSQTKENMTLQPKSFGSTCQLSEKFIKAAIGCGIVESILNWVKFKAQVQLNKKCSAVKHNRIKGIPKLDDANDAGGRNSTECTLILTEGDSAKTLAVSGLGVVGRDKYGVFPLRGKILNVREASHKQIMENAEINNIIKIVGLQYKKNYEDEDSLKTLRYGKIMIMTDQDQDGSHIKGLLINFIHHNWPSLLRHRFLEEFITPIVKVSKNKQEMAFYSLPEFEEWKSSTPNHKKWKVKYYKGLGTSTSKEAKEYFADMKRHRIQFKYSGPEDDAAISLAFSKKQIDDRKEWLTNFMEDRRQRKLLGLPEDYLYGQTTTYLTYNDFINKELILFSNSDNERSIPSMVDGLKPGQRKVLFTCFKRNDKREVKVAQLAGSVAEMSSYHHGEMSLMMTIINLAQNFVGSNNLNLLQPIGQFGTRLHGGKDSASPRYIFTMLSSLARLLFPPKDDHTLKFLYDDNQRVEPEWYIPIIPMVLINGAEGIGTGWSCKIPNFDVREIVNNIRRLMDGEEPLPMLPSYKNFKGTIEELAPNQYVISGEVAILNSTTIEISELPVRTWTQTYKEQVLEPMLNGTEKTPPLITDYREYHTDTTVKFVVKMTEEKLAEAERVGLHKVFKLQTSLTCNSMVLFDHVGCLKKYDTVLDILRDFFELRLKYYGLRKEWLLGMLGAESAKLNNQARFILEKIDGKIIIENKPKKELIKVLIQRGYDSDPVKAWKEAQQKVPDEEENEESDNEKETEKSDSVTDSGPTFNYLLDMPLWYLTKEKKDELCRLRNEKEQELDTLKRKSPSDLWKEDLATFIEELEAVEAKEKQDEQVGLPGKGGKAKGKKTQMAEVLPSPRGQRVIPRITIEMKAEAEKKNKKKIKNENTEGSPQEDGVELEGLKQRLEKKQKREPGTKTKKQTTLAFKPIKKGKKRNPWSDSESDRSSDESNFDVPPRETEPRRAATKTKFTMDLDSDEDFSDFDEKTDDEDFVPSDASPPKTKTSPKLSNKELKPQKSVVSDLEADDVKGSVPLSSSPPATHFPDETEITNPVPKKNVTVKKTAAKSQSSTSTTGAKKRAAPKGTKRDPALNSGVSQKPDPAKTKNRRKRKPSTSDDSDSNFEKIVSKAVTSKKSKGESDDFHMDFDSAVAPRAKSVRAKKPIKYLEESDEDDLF

COc1cc2c(O[C@@H]3OC[C@H](OC(C)=O)[C@H](OC(C)=O)[C@H]3O)c3c(c(-c4ccc5c(c4)OCO5)c2cc1OC)C(=O)OC3 [Compound 1, 7-O-[(3,4-di-O-acetyl)-α-L-arabinopyranosyl] diphyllin]
activity in in vivo hollow fiber assay (HT-29 cell growth) [1]: showed activity; also recorded: dose dependent tendency; also recorded: active; also recorded: antitumor efficacy in vivo | activity in in vivo hollow fiber assay (HT-29 cell growth) ([1]; listed as Phyllanthusmin D): active | toxicity in mice of the hollow fiber assay [1]: no signs of toxicity; also recorded: No gross toxicity; also recorded: without any gross toxicity | toxicity in mice of the hollow fiber assay ([1]; listed as Phyllanthusmin D): no signs of gross toxicity | EC50 ([2]; read-out: ED50, toxicity towards HT-29 cells, natural samples): 170 nM | IC50 ([2]; read-out: IC50, cytotoxicity toward HT-29 cells): 170 nM | cytotoxicity toward CCD-112CoN human normal colon cells (in words) [3]: non-cytotoxic | IC50 ([3]; Table 6): > 100000 nM | topo IIα inhibition (in words) (topo IIα): did not inhibit DNA topoisomerase IIα activity; also recorded: not topo Ha inhibitors; also recorded: no inhibitory activity against topo IIα; also recorded: not topo IIα inhibitors | HT-29 cell apoptosis induction (in words) (HT-29 cells): inducing tumor cell apoptosis; also recorded: induction of tumor cell apoptosis; also recorded: can induce HT-29 cell apoptosis | HT-29 cell apoptosis at the late-stage (HT-29 cells; 1 μM): 27.3% | HT-29 cells undergoing early apoptosis (HT-29 cells; 1 μM): 28.2% | HT-29 cell apoptosis at the late-stage (HT-29 cells; 5 μM): 38.0% | HT-29 cells undergoing early apoptosis (HT-29 cells; 5 μM): 30.3%

COc1cc2c(O[C@@H]3OC[C@H](O)[C@H](OC(C)=O)[C@H]3O)c3c(c(-c4ccc5c(c4)OCO5)c2cc1OC)C(=O)OC3 [Compound 2, 7-O-[(3-O-acetyl)-α-L-arabinopyranosyl] diphyllin]
IC50 [2, 5]: 1800 nM

COc1cc2c(O[C@@H]3OC[C@H](OC(C)=O)[C@H](O)[C@H]3O)c3c(c(-c4ccc5c(c4)OCO5)c2cc1OC)C(=O)OC3 [Compound 3, Phyllanthusmin B]
IC50 [2, 5]: 1800 nM | cytotoxicity toward HT-29 cells (in words) [4]: cytotoxic

COc1cc2c(O[C@@H]3O[C@H](CO)[C@@H](O)[C@H](O)[C@H]3O)c3c(c(-c4ccc5c(c4)OCO5)c2cc1OC)C(=O)OC3 [Compound 5, Cleistanthin B]
IC50 [2, 5]: > 10000 nM

COc1cc2c(OC)c3c(c(-c4ccc5c(c4)OCO5)c2cc1O)C(=O)OC3 [Compound 6, Phyllanthusmin A]
IC50 [2, 5]: > 10000 nM | cytotoxicity toward HT-29 cells (in words) [4]: inactive

COc1cc2c(O)c3c(c(-c4ccc5c(c4)OCO5)c2cc1OC)C(=O)OC3 [Compound 8, Diphyllin]
IC50 [2, 6]: 7600 nM

COc1cc([C@@H]2c3cc4c(cc3[C@@H](O[C@@H]3O[C@@H]5CO[C@@H](C)O[C@H]5[C@H](O)[C@H]3O)[C@H]3COC(=O)[C@H]23)OCO4)cc(OC)c1O [etoposide, reference compound]
IC50 [2, 6]: > 10000 nM | HT-29 cell apoptosis at the late-stage (HT-29 cells; 1 μM): 19.8% | HT-29 cells undergoing early apoptosis (HT-29 cells; 1 μM): 12.9% | HT-29 cell apoptosis at the late-stage (HT-29 cells; 5 μM): 25.3% | HT-29 cells undergoing early apoptosis (HT-29 cells; 5 μM): 12.5%

CC(=O)O[C@H]1C(=O)[C@@]2(C)[C@H]([C@H](OC(=O)c3ccccc3)[C@]3(O)C[C@H](OC(=O)[C@H](O)[C@@H](NC(=O)c4ccccc4)c4ccccc4)C(C)=C1C3(C)C)[C@]1(OC(C)=O)CO[C@@H]1C[C@@H]2O [paclitaxel, reference compound]
IC50 [2, 6]: 1 nM | IC50 ([3]; Homo sapiens, CCD-112CoN): 23000 nM
